Experimental data reported in patent US12269901B2, “Peptide and use thereof” (ENSOL BIOSCIENCES, INC., priority 2019, dated 2025).

How the values were obtained:
[1] = system: TNF-α; assay: TNF-α mRNA expression in anti-CD28-stimulated splenocytes (RT-PCR, relative to GAPDH); assay type: cell-based; conditions: splenocytes of diabetic NOD mice, 2 ng/ml anti-mouse CD28, 100 mM peptide, 3 hr
Method: (§1) The end of the tail of the experimental animals prepared as in Example 2-1 was wounded once a week, and a drop of blood therefrom was measured for blood glucose levels using a glucometer (Roche, Accu-CHEK Performa). The blood glucose levels were confirmed to be “high” (600 mg/dL or more), the mice were subjected to cervical dislocation, and the spleen was extracted therefrom. A cell strainer (BD, 352350) was placed on a 50 ml tube, and the extracted spleen tissue was passed through the cell strainer using the plunger end of a syringe, after which the tube containing the strained cells was added with HBSS (Hanks' Balanced Salt solution) so that the cells were washed with water, followed by centrifugation (1,000 rpm, 5 min) to remove the supernatant. The cells were suspended with 1 ml of HBSS, added with 10 ml of 1×RBC lysis buffer (Ebioscience, 00-4333-57), mixed with gentle stirring, allowed to stand in ice for 5 min, and then centrifuged (1,000 rpm, 5 min) to remove the supernatant. The resulting cells were added with 10 ml of a RBC lysis buffer once more, allowed to stand in ice for 5 min, further centrifuged (1,000 rpm, 5 min) to remove the supernatant, and then washed two times with 10 ml of HBSS. After final centrifugation (1,000 rpm, 5 min), the cells were suspended with 1 ml of HBSS, 50 μl of the cells were diluted with a trypan blue solution at 1:1, and the number of cells was counted using a hemocytometer. […]
(§2) Thereafter, the cells were centrifuged (1,000 rpm, 5 min) to remove the supernatant, lysed through pipetting with 5 ml of TRIzol (Invitrogen, 15596-018), and allowed to stand at room temperature for 5 min. […] RNA was eluted by adding 30 μl of DEPC-treated water and quantified.
(§3) cDNA was synthesized through the experimental procedure for a cDNA synthesis kit (ELPISbio, EBT-1512) using […] of the quantified RNA. Then, in accordance with the procedure for a PCR (Polymerase Chain Reaction) kit (Solgent, SEF01-M50H), cDNA of each cytokine (IFN-γ, TNF-α, TGF-β1) and a housekeeping gene GAPDH for quantitative determination of changes in cytokine expression were amplified. […]

[2] = system: IFN-γ; assay: IFN-γ mRNA expression in anti-CD28-stimulated splenocytes (RT-PCR, relative to GAPDH); assay type: cell-based; conditions: splenocytes of diabetic NOD mice, 2 ng/ml anti-mouse CD28, 100 mM peptide, 3 hr
Method: as §1, §2, §3

[3] = system: TGF-β1; assay: TGF-β1 mRNA expression in anti-CD28-stimulated splenocytes (RT-PCR, relative to GAPDH); assay type: cell-based; conditions: splenocytes of diabetic NOD mice, 2 ng/ml anti-mouse CD28, 100 mM peptide, 72 hr
Method: as §1, §2, §3

[4] = system: NOD/ShiLtJ mice with type 1 diabetes; assay: Effect of lowering blood glucose levels in animals with type 1 diabetes; assay type: in vivo, mouse; conditions: NOD mice with type 1 diabetes, 5 mg/kg SC every morning and evening, up to 14 days, two animals; negative control (PBS) continuously increased
From the text: (§4) The experimental animals were 8-week-old female NOD/ShiLtJ (Jackson Lab). NOD (Non-obese diabetic) mice are animal models of insulitis and type 1 diabetes. In these animals, it is known that type 1 diabetes occurs at 18 weeks of age on average and 90% of incidence thereof occurs by 30 weeks of age. All animals were housed under SPF barrier conditions. This study was approved by the Institutional Animal Care and Use Committee of Osong Medical Innovation Foundation Laboratory Animal Center (Kbio-IACUC-2018-066). The acclimation period was 1 week, and the light/dark cycle was 12 hr ([…]). The temperature was 20±2° C., and the relative humidity was 60 to 80%. Since the incidence of diabetes may be inhibited by intestinal microorganisms, water, the pH of which was adjusted to 2.8-3.2 using HCl, was supplied to the experimental animals.
The end of the tail of the experimental animals prepared above was wounded once a week and a drop of blood therefrom was measured for blood glucose levels using a glucometer (Roche, Accu-CHEK Performa). When the blood glucose levels were measured to be 250 mg/dL or more and the blood glucose levels remeasured on the third day thereafter was also 250 mg/dL or more, type 1 diabetes was considered to have occurred, and the experiment was conducted. […]

[5] = system: NOD/ShiLtJ mice with type 1 diabetes (insulitis); assay: Effect of inhibiting or reducing development of insulitis (insulitis score of pancreatic islets, H&E); assay type: in vivo, mouse; conditions: NOD mice with type 1 diabetes, 5 mg/kg SC every morning and evening for 14 days, pancreas on 14th day
From the text: as §4
The end of the tail of the experimental animals prepared above was wounded once a week and a drop of blood therefrom was measured for blood glucose levels using a glucometer (Roche, Accu-CHEK Performa). When the blood glucose levels were measured to be 250 mg/dL or more and the blood glucose levels remeasured on the third day thereafter was also 250 mg/dL or more, type 1 diabetes was considered to have occurred, and the experiment was conducted.
Two experimental animals with type 1 diabetes were selected as the treatment group of Example 1, and were subcutaneously (SC) administered with 100 μl of the peptide of Example 1 (5 mg/kg). The administration was performed every morning and evening for 14 days, and the blood glucose levels were measured using a glucometer. […] On the 14th day, one experimental animal, the blood glucose levels of which were measured to be less than 250 mg/dL, was selected as a normal group, and was used to compare the insulitis scores of experimental animals with type 1 diabetes and experimental animals without type 1 diabetes.
After measurement of the blood glucose levels on the 14th day, the pancreas was removed from the experimental animals and fixed in 10% […] buffered formalin (10% NBF, Sigma, HT5011) to manufacture a paraffin block. […] For the treatment group of Example 1, the number of islets in two animals was measured, individual islets were classified depending on the stage of insulitis to thus determine the insulitis score, and the number of islets corresponding to each insulitis stage among the total number of islets was represented as a percentage. For the negative control group and the normal group, the insulitis scores were determined as in the treatment group of Example 1, after which the number of islets corresponding to each insulitis stage among the total number of islets was represented as a percentage. […]

| Substance | TNF-α mRNA expression level compared to the negative control group (anti-CD28) [1] | IFN-γ mRNA expression level compared to the negative control group (anti-CD28) [2] | TGF-β1 mRNA expression level compared to the negative control group (anti-CD28) [3] | blood glucose levels [4] | percentage of islets in insulitis stage 3 compared to the negative control group [5] | percentage of islets in stage 0 (no insulitis) compared to the negative control group [5] | percentage of islets in stage 0 compared to the normal group [5] | percentages of islets in insulitis stages 0-2 compared to the negative control group [5] |
| --- | --- | --- | --- | --- | --- | --- | --- | --- |
| YGAGAG [Comparative Example 2] | increase | did not greatly change | did not greatly change |  |  |  |  |  |
| YGAGAGAGY [Example 1] | reduced | reduced | increased | decreased significantly and then remained in the normal range | decreased | approximately doubled | higher | increased |
| GAGAGY [Comparative Example 1] | did not greatly change | did not greatly change | did not greatly change |  |  |  |  |  |
